Results taken from patent publication US8912121B2, “Herbicidal compositions comprising 4-amino-3-chloro-5-fluoro-6-(4-chloro-2-fluoro-3-methoxyphenyl)pyridine-2-carboxylic acid or a derivative thereof and certain PS II inhibitors” (Dow Agrosciences LLC, priority 2012, dated 2014).

Assays:
[1] = test system: IPOHE (Ipomoea hederacea, ivyleaf morningglory); test: Postemergence foliar-applied mixtures, direct seeded rice, greenhouse; type: in vivo, Ipomoea hederacea Jacq.; details: post-emergence, 480 h
Source text: Seeds or nutlets of the desired test plant species were planted in a soil matrix prepared by mixing a loam or sandy loam soil (e.g., 28.6 percent silt, 18.8 percent clay, and 52.6 percent sand, with a pH of about 5.8 and an organic matter content of about 1.8 percent) and calcareous grit in an 80 to 20 ratio. The soil matrix was contained in plastic pots with a volume of 1 quart and a surface area of 83.6 square centimeters (cm^2). When required to ensure good germination and healthy plants, a fungicide treatment and/or other chemical or physical treatment was applied. The plants were grown for 8-22 days in a greenhouse with an approximate 14 h photoperiod which was maintained at about 29° C. during the day and 26° C. during the night. Nutrients (Peters Excel® 15-5-15 5-Ca 2-Mg and iron chelate) were applied in the irrigation solution as needed and water was added on a regular basis. Supplemental lighting was provided with overhead metal halide 1000-Watt lamps as necessary. The plants were employed for testing when they reached the first through fourth true leaf stage.
Treatments consisted of the acid or esters of 4-amino-3-chloro-5-fluoro-6-(4-chloro-2-fluoro-3-methoxy-phenyl) pyridine-2-carboxylic acid (Compound A), each formulated as an SC (suspension concentrate), and various herbicidal components alone and in combination. Forms of compound A were applied on an acid equivalent basis.
Other herbicidal components were applied on an active ingredient basis and included Photosystem II (PSII)-inhibiting herbicides propanil formulated as Stam® M4 EC, bentazon-sodium formulated as Basagran®, atrazine formulated as Atrazine 90 WDG, bromoxynil octanoate ester formulated as Buctril®, simetryne (technical grade material), simazine formulated as Princep® Caliber 90, ioxynil (technical grade material), cyanazine (technical grade material), and hexazinone (technical grade material).
Treatment requirements were calculated based upon the rates being tested, the concentration of active ingredient or acid equivalent in the formulation, and a 12 mL application volume at a rate of 187 L/ha.
For treatments comprised of formulated compounds, measured amounts of compounds were placed individually in 25 mL glass vials and diluted in a volume of 1.25% (v/v) Agri-Dex® crop oil concentrated to obtain 12× stock solutions. […] Application solutions were prepared by adding an appropriate amount of each stock solution (e.g., 1 mL) and diluted to the appropriate final concentrations with the addition of 10 mL of an aqueous mixture of 1.25% (v/v) crop oil concentrate so that the final spray solutions contained 1.25+/−0.05% (v/v) crop oil concentrate.
For treatments comprised of technical compounds, weighed amounts can be placed individually in 25 mL glass vials and dissolved in a volume of 97:3 v/v acetone/DMSO to obtain 12× stock solutions. […] Application solutions can be prepared by adding an appropriate amount of each stock solution (e.g., 1 mL) and diluted to the appropriate final concentrations with the addition of 10 mL of an aqueous mixture of 1.5% (v/v) crop oil concentrate so that the final spray solutions contain 1.25% (v/v) crop oil concentrate. When technical materials are used, the concentrated stock solutions can be added to the spray solutions so that the final acetone and DMSO concentrations of the application solutions are 16.2% and 0.5%, respectively.
For treatments comprised of formulated and technical compounds, weighed amounts of the technical materials were placed individually in 25 mL glass vials and dissolved in a volume of 97:3 v/v acetone/DMSO to obtain 12× stock solutions, and measured amounts of the formulated compounds were placed individually in 25 mL glass vials and diluted in a volume of 1.5% (v/v) crop oil concentrate or water to obtain 12× stock solutions. […]

[2] = test system: ECHOR (Echinochloa oryzoides, early watergrass); test: In-water applied mixtures, transplanted paddy rice, greenhouse; type: in vivo, Echinochloa oryzoides (Ard.) Fritsch; details: 70 g ae/ha; 20 DAA
Experimental: (§1) Weed seeds or nutlets of the desired test plant species were planted in puddled soil (mud) prepared by mixing a shredded, non-sterilized mineral soil (50.5 percent silt, 25.5 percent clay, and 24 percent sand, with a pH of about 7.6 and an organic matter content of about 2.9 percent) and water at a 1:1 volumetric ratio. The prepared mud was dispensed in 365 mL aliquots into 16-ounce (oz.) non-perforated plastic pots with a surface area of 86.59 square centimeters (cm^2) leaving a headspace of 3 centimeters (cm) in each pot Mud was allowed to dry overnight prior to planting or transplanting. Rice seeds were planted in Sun Gro MetroMix® 306 planting mixture, which typically has a pH of 6.0 to 6.8 and an organic matter content of about 30 percent, in plastic plug trays. Seedlings at the second or third leaf stage of growth were transplanted into 840 mL of mud contained in 32-oz. non-perforated plastic pots with a surface area of 86.59 cm^2 4 days prior to herbicide application. The paddy was created by filling the headspace of the pots with 2.5 to 3 cm of water. When required to ensure good germination and healthy plants, a fungicide treatment and/or other chemical or physical treatment was applied. The plants were grown for 4-22 days in a greenhouse with an approximate 14 h photoperiod which was maintained at about 29° C during the day and 26° C. during the night. Nutrients were added as Osmocote® (19:6:12, N:P:K+ minor nutrients) at 2 g per 16-oz. pot and 4 g per 32-oz. pot. Water was added on a regular basis to maintain the paddy flood, and supplemental lighting was provided with overhead metal halide 1000-Watt lamps as necessary. The plants were employed for testing when they reached the first through fourth true leaf stage.
(§2) Treatments consisted of the acid or esters of 4-amino-3-chloro-5-fluoro-6-(4-chloro-2-fluoro-3-methoxy-phenyl)pyridine-2-carboxylic acid (compound A) each formulated as an SC (suspension concentrate) and various herbicidal components alone and in combination. Forms of compound A were applied on an acid equivalent basis.
(§3) Other herbicidal components were applied on an active ingredient basis and included photosystem II (PSII)-inhibits propanil formulated as […] bentazon-sodium formulated as Basagran®, and simetryne (technical grade material).
(§4) Treatment requirements for each compound or herbicidal component were calculated based upon the rates being tested, the concentration of active ingredient or acid equivalent in the formulation, an application volume of 2 mL per component per pot, and an application area of 86.59 cm^2 per pot.
(§5) For formulated compounds, a measured amount was placed in an individual 100 or 200 mL glass vial and was dissolved in a volume of 1.25% (v/v) Agri-Dex® crop oil concentrate to obtain application solutions.
(§6) For technical grade compounds, a weighed amount was placed in an individual 100 to 200 mL glass vial and was dissolved in a volume of acetone to obtain concentrated stock solutions. […] The concentrated stock solutions obtained were diluted with an equivalent volume of an aqueous mixture containing 2.5% (v/v) crop oil concentrate so that the final application solutions contained 1.25% (v/v) crop oil concentrate.
(§7) Applications were made by injecting with a pipetter appropriate amounts of the application solutions, individually and sequentially, into the aqueous layer of the paddy. Control plants were treated in the same manner with the solvent blank. Applications were made so that all treated plant material received the same concentrations of acetone and crop oil concentrate.
(§8) The treated plants and control plants were placed in a greenhouse as described above and water was added as needed to maintain a paddy flood. After approximately 3 weeks the condition of the test plants as compared with that of the untreated plants was determined visually and scored on a scale of 0 to 100 percent where 0 corresponds to no injury or growth inhibition and 100 corresponds to complete kill. […]

[3] = test system: SCPMA (Schoenoplectus maritimus, sea clubrush); test: as above; type: in vivo, Schoenoplectus maritimus (L.) Lye; details: 20 DAA
Experimental: as §1, §2, §3, §4, §5, §6, §7, §8

CCCCOC(=O)c1nc(-c2ccc(Cl)c(OC)c2F)c(F)c(N)c1Cl [Compound A n-Butyl Ester]
pest or weed control at 16 g/ha ([1]; read-out: Visual Weed Control (%) Obs, 16 g ae/ha, 20 DAA): 15% | pest or weed control at 17.5 g/ha ([1]; read-out: Visual Weed Control (%) Obs, 17.5 g ae/ha, 20 DAA): 48% | Visual Weed Control (%) Obs [2]: 40% | Visual Weed Control (%) Obs ([3]; 35 g ae/ha): 0% | Visual Weed Control (%) Obs ([3]; 70 g ae/ha): 0%
